Here are results for twelve molecules from patent US20230355557A1, “ANTIVIRAL SOX INHIBITORS” (Gertrude Biomedical Pty LTD, priority 2020, published 2023).

Each structure is given as a SMILES string.

What all share (format): cell-based
For experiment [1], the target named is T1, SOX18 (Mus musculus, UniProt P43680).
T1 construct: expressed in transfected cells; host or cells: COS-7 (monkey kidney fibroblast-like cells)
T1 sequence (P43680 1-377): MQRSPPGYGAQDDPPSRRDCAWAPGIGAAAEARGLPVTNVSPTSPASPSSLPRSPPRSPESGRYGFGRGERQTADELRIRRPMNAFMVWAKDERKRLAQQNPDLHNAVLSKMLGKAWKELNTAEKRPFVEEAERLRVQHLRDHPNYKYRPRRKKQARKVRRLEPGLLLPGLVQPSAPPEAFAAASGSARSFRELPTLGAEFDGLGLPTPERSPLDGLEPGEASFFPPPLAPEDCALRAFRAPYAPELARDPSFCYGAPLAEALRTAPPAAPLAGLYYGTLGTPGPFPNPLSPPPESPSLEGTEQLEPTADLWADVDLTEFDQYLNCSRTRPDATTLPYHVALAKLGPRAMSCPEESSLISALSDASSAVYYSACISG
In words: VCAM-1 luciferase reporter assay in COS-7 cells transfected with Vcam-1 promoter construct and SOX18. The settings on record: VCAM-1 promoter luciferase, 24 hr compound incubation, % of maximal signal without compound. How it is done: Monkey kidney fibroblast-like cells (COS-7) were cultured at 37° C. and 5% CO2 in DMEM (Life Technologies, 11995) with fetal bovine serum (FBS), sodium pyruvate, L-glutamine, penicillin, streptomycin, non-essential amino acids, and HEPES. Cells were grown in 96-well plates to 80% confluence and transfected with mouse plasmids pGL2 Vcam-1 promoter construct (VC1889) and pReceiver M49 SOX18, using X-tremeGENE HP DNA transfection reagent (Roche, 6366236001). After 4 hr of transfection, cells were incubated with compounds in 0.5% FBS medium for another 24 hr, before lysis and luciferase assay (Perkin Elmer, 6016711). Results are presented as %inhibition of the maximal signal observed in cells transfected with VCAM-1 and SOX18 without compound incubation.
The second assay measured the interaction between SOX18 and the VCAM-1 promoter (Hosking et al., (2004) J Biol. Chem. 297:5314-5322). […] Without wishing to be bound by theory, it is understood that viral infection can induce an inflammatory response of endothelial cells, the latter being a result of VCAM-1 gene expression which is regulated by SOX18 activity (Huber J. (1994) J Virol. 68(6):3453-8). Put another way, the expression of VCAM-1 is driven by SOX18 so upon virus infection, SOX18 binds to the VCAM promoter and induces expression of VCAM.
The compounds described in Table 2 were tested by the VCAM-1 luciferase reporter assay. The results are shown in Table 2 under the column %inhibition of SOX18.

Experiment [2] has as its target T2, SOX18 (Homo sapiens, UniProt P35713).
T2 construct: expressed in transfected cells; host or cells: HeLa
T2 sequence (P35713 1-384): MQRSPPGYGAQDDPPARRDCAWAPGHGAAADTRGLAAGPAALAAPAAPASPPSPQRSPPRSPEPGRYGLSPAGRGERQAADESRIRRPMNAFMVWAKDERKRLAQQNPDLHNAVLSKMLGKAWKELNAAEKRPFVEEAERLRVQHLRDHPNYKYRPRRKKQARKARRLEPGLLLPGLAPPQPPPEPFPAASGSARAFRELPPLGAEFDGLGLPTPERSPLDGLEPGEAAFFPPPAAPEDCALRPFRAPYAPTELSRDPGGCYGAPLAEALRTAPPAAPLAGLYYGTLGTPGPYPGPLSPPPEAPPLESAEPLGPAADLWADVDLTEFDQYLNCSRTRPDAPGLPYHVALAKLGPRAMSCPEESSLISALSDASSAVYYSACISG
In words: SOX18 luciferase reporter assay (7XTR and OriA reporters) in HeLa cells. The settings on record: HeLa cells transfected with SOX18 and 7xTR or OriA reporter, 24 hours treatment (FIG. 2). The method, then:
Luciferase signal was quantified and single values from n=3 technical replicates are shown. Data points represent mean + SD. P values were calculated using a 2-way and ordinary one way ANOVA followed by Dunnett’s multiple comparison test.
(§1) KSHV-infected cells were incubated with the indicated inhibitor at the concentrations stated in the Figure panels for six days prior to analysis. HeLa cells were incubated with the indicated inhibitor at the concentrations stated in the Figure panels for 24 hours prior to analysis.
HeLa cells were cultured in DMEM containing 10% FCS, 1% L-glutamine and 1% pen/strep at 37° C. & 5% CO2. Cells were seeded at a density of 7000 cells per well in 125 µL of the maintenance medium in a 96-well format for 24 hours.
Plasmids were transfected using FuGENE HD Transfection Reagent (Promega E2311) (1:4 DNA to reagent ratio) and Opti-MEM (ThermoFisher 31985062). OriA-luc negative control and experimental wells contained 25 ng OriA-luc plasmid and 10 ng SOX18 plasmid per well, positive control contained 25 ng OriA-luc plasmid and 10 ng mCherry plasmid per well. 7XTR-luc negative control and experimental wells contained 50 ng 7XTR-luc plasmid and 20 ng SOX18 plasmid per well, positive control contained 50 ng 7XTR-luc plasmid and 20 ng mCherry plasmid per well. Cell were incubated for 18 hours before cells were replenished with new medium containing experimental compounds and incubated for 24 hours.
Luminescence was measured by adding an equal volume of Steady-Glo reagent to cells at room temperature and luminescence was quantified using the FLUOstar plate reader (BMG Labtech, FLUOstar Omega; 4 sec intervals per well).
Activation of these genes was measured using HeLa cells that were transfected with luciferase-reporters harbouring either seven copies of the TR (7XTR) or the OriA promoter fused to OriLyt upstream of an SV40 promoter and a firefly luciferase reporter. ORF, that binds to the OriLyt and is a potent activator of this reporter (Chen J et al., (2009) Virology 386:290-302) was used as a positive control. […]
Background: Reporter assays use an easily measured gene product as a stand-in for the process of interest.

The test system of experiment [3] is Kaposi sarcoma herpesvirus (KSHV). The experiment is described as follows: KLEC genome copy number assay in KSHV-infected primary human dermal lymphatic endothelial cells. The settings on record: KSHV-infected LECs, 6 days. The method, then:
The relative expression of KSHV from control was quantified and single values from n=3 technical replicates are shown. Bars represent mean + SD. P values were calculated using a 2-way ANOVA (left) and ordinary one way-ANOVA (right) followed by Dunnett’s multiple comparison test.
as §1
Primary human dermal lymphatic (C-12216) endothelial cells (LECs) were purchased from Promocell and grown in Lonza EBM-2 (00190860) supplemented with EGMTM-2 MV Microvascular Endothelial SingleQuotsTM(CC-4147). Cell from passage 1-3 were used.
rKSHV.219 was produced from iSLK.219 cells reactivated using 0.2 µg/ml doxycycline and 1.35 mM NaB for 72 h. Supernatant was harvested, spun down (2000 rpm 5 min) and sterile filtered using […] pore-size filters. Subsequently the supernatant was ultracentrifuged at 22000 rpm for 2 h. The concentrated virus was then aliquoted and stored at -80° C.
Equal number of LECs were seeded into 6-well assay-plates and incubated at 37° C. & 5% CO2 until 80% confluency. After reaching confluency, LECs were infected with rKSHV.219 and incubated at 37° C. & 5% CO2 for 3 days, making sure that the cell density remained similar. Cell were subsequently mixed at a 2:3 ratio with uninfected LECs for 2 days. Once GFP expression and cell spindling was observed the culture medium was replaced with medium containing the experimental compounds with 0.25% DMSO (v/v) at concentrations from 0.1 uM to 50 uM. After 3 days of incubation, the cells were replenished with new medium containing experimental compounds and incubated for 3 more days.
After compound incubation, cells were collected and genomic and viral DNA was extracted using the NucleoSpin Tissue Kit (Macherey-Nagel, 740952) following the kit’s standard protocol. qPCR was subsequently completed (SYBR Green, ThermoFisher K0222) in triplicates using primers for viral K8.1 and Human genomic actin. K8.1 forward primer: […] (SEQ ID NO:1); reverse primer: […] (SEQ ID NO:2). Genomic acid forward primer: […] (SEQ ID NO:3); reverse primer: […] (SEQ ID NO:4).
A KLEC assay was used to examine the ability of the compounds to inhibit viral copy number in virus infected primary human dermal lymphatic endothelial cells (LECs).

`COC(=O)c1c(O)cccc1/C=C/c1ccccc1` [GB026, methyl (E)-2-hydroxy-6-styrylbenzoate]: the “%inhibition of Sox18” value in experiment [1] came out at 49.66%. The same measure, in the same setting: the figure for `COc1cccc(COCc2ccc3ccccc3c2)c1C(=O)O` [GB006, 2-methoxy-6-((naphthalen-2-ylmethoxy)methyl)benzoic acid] is 19.33%; for `COc1cc(O)c(C(=O)O)c(CCc2ccc3ccccc3c2)c1` [GB025, 2-hydroxy-4-methoxy-6-(2-(naphthalen-2-yl)ethyl)benzoic acid] it is 67.19%.

`O=C(O)c1c(O)cccc1CCc1ccc2ccccc2c1` [GB001, 2-hydroxy-6-(2-(naphthalen-2-yl)ethyl)benzoic acid]: in experiment [2], the “interference with SOX18-mediated gene transcription (luciferase signal)” value (shortened to “interference”) is “interferes with SOX18-mediates gene transcription”. Further, the “%inhibition of Sox18” value in experiment [1] is recorded as 99.10%. Also, the “reduction in KSHV genome copy number (fold change)” value (“reduction … (fold change)” below) in experiment [3] (10 µM) and in experiment [3] (50 µM) was “Significant reduction in genome copy number” each time. On to `COc1cccc(/C=C/c2ccc3ccccc3c2)c1C(=O)O` [GB002, (E)-2-methoxy-6-(2-(naphthalen-2-yl)vinyl)benzoic acid], for which the “interference” value in experiment [2] was “interferes with SOX18-mediates gene transcription”. For the same molecule, the “%inhibition of Sox18” value in experiment [1] is given as 30.78%. Also, the “reduction … (fold change)” value in experiment [3] (50 µM) is on record as “Significant reduction in genome copy number”.

As to `O=C(O)c1c(O)cccc1CCc1ccccc1` [GB003, 2-hydroxy-6-phenethylbenzoic acid], the “%inhibition of Sox18” value in experiment [1] turned out to be 49.18%.

As to `COc1cccc(CCc2cccc3ccccc23)c1C(=O)O` [GB027, 2-methoxy-6-(2-(naphthalen-1-yl)ethyl)benzoic acid], in experiment [1], the “%inhibition of Sox18” value amounted to 47.43%. On the same count and under the same terms, under `COc1ccc(CCc2cccc(OC)c2C(=O)O)cc1` [GB005, 2-methoxy-6-(4-methoxyphenethyl)benzoic acid] stands 25.32%.

On to `Cc1cc(O)c(C(=O)O)c(CCc2ccc3ccccc3c2)c1` [GB012, 2-hydroxy-4-methyl-6-(2-(naphthalen-2-yl)ethyl)benzoic acid], for which the “%inhibition of Sox18” value in experiment [1] amounted to 96.7%. Still for that read-out and setting: under `O=C(O)c1c(O)cc(Cl)cc1CCc1ccc2ccccc2c1` [GB019, 4-chloro-2-hydroxy-6-(2-(naphthalen-2-yl)ethyl)benzoic acid] stands 54.02%; under `COC(=O)c1c(O)cccc1CCc1ccc(Cl)cc1` [GB028, methyl 2-(4-chlorophenethyl)-6-hydroxybenzoate], 48.31%.

In the case of `O=C(O)c1c(O)cccc1CCc1ccc(Cl)cc1Cl` [GB004, 2-(2,4-dichlorophenethyl)-6-hydroxybenzoic acid], the “interference” value in experiment [2] is on record as “interferes with SOX18-mediates gene transcription”. In addition, in experiment [1], the “%inhibition of Sox18” value is 48.26%. Besides, the “reduction … (fold change)” value in experiment [3] (5 µM) is listed as “Significant reduction in genome copy number”.
